Data from patent publication US7928140B2, “Benzothiazole PI3 kinase modulators for cancer treatment” (Amgen Inc., priority 2007, dated 2011).
Like-named read-outs stand apart in the source and are kept apart here.

Experiments:
PI3K α = molecular target: T1, PI3K α (Homo sapiens, UniProt P42336); assay: In vitro PI3 kinase enzyme assay (alpha), ATP loss, bioluminescence; format: biochemical; details: read-out: PI3Kα ATP loss IC50;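 note: purified p110α/p85 heterodimer acting on PtdIns(4,5)P2 at room temperature, remaining ATP read by luminescence, inhibition scaled between compound-free wells with and without enzyme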
T1 construct: Full length p110 subunits of PI3K α, β and δ, N-terminally labeled with polyHis tag; polyHis (N); made in house; host or cells: Sf9 insect cells (baculovirus)
T1 sequence (P42336 whole entry, species assumed): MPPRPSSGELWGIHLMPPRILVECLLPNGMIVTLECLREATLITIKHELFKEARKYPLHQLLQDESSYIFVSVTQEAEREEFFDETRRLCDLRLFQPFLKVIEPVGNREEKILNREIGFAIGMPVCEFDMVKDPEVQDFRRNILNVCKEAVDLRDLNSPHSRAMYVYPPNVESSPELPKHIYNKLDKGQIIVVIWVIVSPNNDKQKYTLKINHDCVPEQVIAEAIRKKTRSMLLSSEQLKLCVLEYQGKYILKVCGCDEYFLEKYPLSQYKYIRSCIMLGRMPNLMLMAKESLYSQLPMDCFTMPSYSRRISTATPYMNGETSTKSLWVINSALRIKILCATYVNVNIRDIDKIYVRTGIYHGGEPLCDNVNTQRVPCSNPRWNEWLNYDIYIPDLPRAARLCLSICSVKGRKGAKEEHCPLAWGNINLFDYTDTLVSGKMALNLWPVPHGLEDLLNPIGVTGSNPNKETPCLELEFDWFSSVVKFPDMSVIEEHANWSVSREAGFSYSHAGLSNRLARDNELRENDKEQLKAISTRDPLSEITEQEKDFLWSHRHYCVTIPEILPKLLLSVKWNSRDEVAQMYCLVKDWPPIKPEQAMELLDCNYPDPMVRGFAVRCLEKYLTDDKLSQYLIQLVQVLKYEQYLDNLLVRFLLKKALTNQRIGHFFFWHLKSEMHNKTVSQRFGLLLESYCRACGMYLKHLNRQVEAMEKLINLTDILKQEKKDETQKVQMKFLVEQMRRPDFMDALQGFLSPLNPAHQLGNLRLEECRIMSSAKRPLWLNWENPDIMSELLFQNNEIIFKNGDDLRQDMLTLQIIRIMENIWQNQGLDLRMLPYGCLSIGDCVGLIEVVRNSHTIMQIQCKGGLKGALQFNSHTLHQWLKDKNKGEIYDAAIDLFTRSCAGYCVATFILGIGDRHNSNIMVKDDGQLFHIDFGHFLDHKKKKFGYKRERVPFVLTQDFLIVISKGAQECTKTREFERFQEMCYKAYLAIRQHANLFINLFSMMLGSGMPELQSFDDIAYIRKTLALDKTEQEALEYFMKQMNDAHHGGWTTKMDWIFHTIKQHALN
T1 sequence (P27986 whole entry partner, species assumed): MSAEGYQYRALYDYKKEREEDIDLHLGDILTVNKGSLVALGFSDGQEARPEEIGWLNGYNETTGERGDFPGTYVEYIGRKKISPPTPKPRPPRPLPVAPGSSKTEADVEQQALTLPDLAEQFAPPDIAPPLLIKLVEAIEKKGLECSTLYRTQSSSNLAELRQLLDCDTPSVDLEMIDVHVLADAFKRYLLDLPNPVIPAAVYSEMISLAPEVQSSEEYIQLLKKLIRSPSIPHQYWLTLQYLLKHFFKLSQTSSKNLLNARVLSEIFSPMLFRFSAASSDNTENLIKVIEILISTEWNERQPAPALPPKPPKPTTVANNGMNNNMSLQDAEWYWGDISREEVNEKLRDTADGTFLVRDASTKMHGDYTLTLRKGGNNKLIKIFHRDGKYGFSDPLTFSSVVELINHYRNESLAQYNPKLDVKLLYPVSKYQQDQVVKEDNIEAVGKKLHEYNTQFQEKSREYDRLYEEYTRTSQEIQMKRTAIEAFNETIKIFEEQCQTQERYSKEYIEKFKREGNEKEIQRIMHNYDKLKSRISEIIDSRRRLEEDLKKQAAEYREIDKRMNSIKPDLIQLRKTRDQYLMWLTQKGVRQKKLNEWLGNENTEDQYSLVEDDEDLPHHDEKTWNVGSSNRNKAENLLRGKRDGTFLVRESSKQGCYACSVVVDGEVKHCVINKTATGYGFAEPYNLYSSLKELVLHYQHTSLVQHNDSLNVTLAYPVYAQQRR

PI3K β = molecular target: T2, PI3K β (Homo sapiens, UniProt P42338); assay: In vitro PI3 kinase enzyme assay (beta), ATP loss, bioluminescence; format: biochemical; details: read-out: PI3Kβ ATP loss IC50;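 note: purified p110β/p85 heterodimer with PtdIns(4,5)P2 as acceptor, incubated at room temperature, leftover ATP read by luminescence, inhibition scaled to compound-free wells with and without enzyme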
T2 construct: Full length p110 subunits of PI3K α, β and δ, N-terminally labeled with polyHis tag; polyHis (N); made in house; host or cells: Sf9 insect cells (baculovirus)
T2 sequence (P42338 whole entry): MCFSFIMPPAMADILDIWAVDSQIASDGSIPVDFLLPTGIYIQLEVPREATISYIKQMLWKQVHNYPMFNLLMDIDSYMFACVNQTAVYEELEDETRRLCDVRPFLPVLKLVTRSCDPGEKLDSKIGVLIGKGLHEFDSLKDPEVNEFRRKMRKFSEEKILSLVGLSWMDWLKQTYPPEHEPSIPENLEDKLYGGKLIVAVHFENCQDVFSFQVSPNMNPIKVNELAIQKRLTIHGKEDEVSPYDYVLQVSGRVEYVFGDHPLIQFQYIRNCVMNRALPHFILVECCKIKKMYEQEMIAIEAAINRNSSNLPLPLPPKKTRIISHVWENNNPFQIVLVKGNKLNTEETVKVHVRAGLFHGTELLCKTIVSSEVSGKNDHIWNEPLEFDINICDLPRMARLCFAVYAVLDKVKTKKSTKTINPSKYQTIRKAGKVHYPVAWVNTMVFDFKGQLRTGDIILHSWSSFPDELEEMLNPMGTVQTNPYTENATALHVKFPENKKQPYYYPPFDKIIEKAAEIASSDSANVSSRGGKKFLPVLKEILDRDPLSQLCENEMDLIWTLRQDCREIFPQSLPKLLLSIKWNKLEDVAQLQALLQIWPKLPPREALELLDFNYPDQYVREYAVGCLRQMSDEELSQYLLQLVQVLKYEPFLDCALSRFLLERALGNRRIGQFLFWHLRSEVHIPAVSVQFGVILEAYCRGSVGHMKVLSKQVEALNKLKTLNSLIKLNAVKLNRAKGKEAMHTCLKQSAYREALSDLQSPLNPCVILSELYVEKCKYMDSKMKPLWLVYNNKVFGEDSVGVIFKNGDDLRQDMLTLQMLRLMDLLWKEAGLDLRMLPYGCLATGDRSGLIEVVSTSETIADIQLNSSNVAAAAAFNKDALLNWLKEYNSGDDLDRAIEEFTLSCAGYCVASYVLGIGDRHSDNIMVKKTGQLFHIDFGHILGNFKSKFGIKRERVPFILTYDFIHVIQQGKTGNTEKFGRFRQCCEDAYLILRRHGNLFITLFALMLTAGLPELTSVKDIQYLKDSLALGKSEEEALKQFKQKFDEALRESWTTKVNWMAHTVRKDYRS
T2 sequence (P27986 whole entry partner): as the sequence (P27986 whole entry partner, species assumed) above

[1] = system: phosphorylation of Serine 473 in Akt, HCT 116 human colon carcinoma cells; assay: Cell-based phospho-AKT Ser473 assay (MSD sandwich immunoassay, IGF-1 stimulated); details: Homo sapiens
Procedure, shortened: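 HCT116 cells, 16,000/well and plated overnight, were pre-treated with serially diluted compound for 2 h at 37 °C, then stimulated with IGF-1 at 100 ng/ml for 15 min. Lysates were assayed for Akt pSer473 by MSD sandwich electrochemiluminescence, and IC50 was derived from dose-response data.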

[2] = HCT-116, HCT 116 cells, read-out: HCT 116 pAKT IC50
[3] = HCT-116, read-out: HCT 116 pAKT IC50

SMILES	IC50 (PI3K α) [nM]	IC50 (PI3K β) [nM]	IC50 [1, 2] [nM]	IC50 [1, 3] [nM]
CC(=O)Nc1nc2c(F)cc(-c3cncc(NS(=O)(=O)c4ccc(C(F)(F)F)cc4)c3)cc2s1 [Example 117, N-(4-fluoro-6-(5-(4-(trifluoromethyl)phenylsulfonamido)pyridin-3-yl)benzo[d]thiazol-2-yl)acetamide]	7.7	55.8	–	301
COc1ccc(S(=O)(=O)c2cncc(-c3ccc4nc(NC(C)=O)sc4c3)n2)cc1 [Example 120, N-(6-(6-((4-methoxyphenyl)sulfonyl)-2-pyrazinyl)-1,3-benzothiazol-2-yl)acetamide]	16.4	1070	332	–
CC(=O)Nc1nc2ccc(-c3cncc(S(=O)(=O)c4ccccc4F)n3)cc2s1 [Example 121, N-(6-(6-((2-fluorophenyl)sulfonyl)-2-pyrazinyl)-1,3-benzothiazol-2-yl)acetamide]	19.1	496	190	–
CC(=O)Nc1nc2ccc(-c3ccnc(Sc4ccccc4Cl)n3)cc2s1 [Example 125, N-(6-(2-((2-chlorophenyl)sulfanyl)-4-pyrimidinyl)-1,3-benzothiazol-2-yl)acetamide]	25.4	425	548	–
COc1ccc(S(=O)(=O)N(C)c2cncc(-c3ccc4nc(NC(C)=O)sc4c3)n2)cc1 [Example 126, N-(6-(6-(((4-methoxyphenyl)sulfonyl)(methyl)amino)-2-pyrazinyl)-1,3-benzothiazol-2-yl)acetamide]	27.1	321	80.6	–
CC(=O)Nc1nc2ccc(-c3ccnc(Sc4c(C)cccc4C)n3)cc2s1 [Example 129, N-(6-(2-((2,6-dimethylphenyl)sulfanyl)-4-pyrimidinyl)-1,3-benzothiazol-2-yl)acetamide]	38.3	477	978	–
CC(=O)Nc1nc2ccc(-c3cncc(Sc4ccccc4F)n3)cc2s1 [Example 130, N-(6-(6-((2-fluorophenyl)sulfanyl)-2-pyrazinyl)-1,3-benzothiazol-2-yl)acetamide]	39	65	442	–
COc1ccc(Sc2cncc(-c3ccc4nc(NC(C)=O)sc4c3)n2)cc1 [Example 133, N-(6-(6-((4-methoxyphenyl)sulfanyl)-2-pyrazinyl)-1,3-benzothiazol-2-yl)acetamide]	41.5	75.4	1230	–
CC(=O)Nc1nc2ccc(-c3cncc(OCc4ccccc4)n3)cc2s1 [Example 135, N-(6-(6-(benzyloxy)-2-pyrazinyl)-1,3-benzothiazol-2-yl)acetamide]	54.2	219	1970	–
CC(=O)Nc1nc2ccc(-c3cccc(NS(=O)(=O)c4ccc(C)cc4)c3)nc2s1 [Example 136, N-(5-(3-(4-methylphenylsulfonamido)phenyl)thiazolo[5,4-b]pyridin-2-yl)acetamide]	58.6	199	172	–
CC(=O)Nc1nc2c(F)cc(-c3cccc(S(=O)(=O)c4ccccc4F)n3)cc2s1 [Example 137, N-(4-fluoro-6-(6-((2-fluorophenyl)sulfonyl)-2-pyridinyl)-1,3-benzothiazol-2-yl)acetamide]	65	1140	901	–
COc1ncc(-c2ccc3nc(NC(C)=O)sc3c2)cc1NC(C)C [Example 145, N-(6-(6-methoxy-5-((1-methylethyl)amino)-3-pyridinyl)-1,3-benzothiazol-2-yl)acetamide]	114	424	851	–
COc1ccc(S(=O)(=O)Nc2cccc(-c3ccc4nc(NC(C)=O)sc4n3)c2)cc1 [Example 146, N-(5-(3-(4-methoxyphenylsulfonamido)phenyl)thiazolo[5,4-b]pyridin-2-yl)acetamide]	117	359	–	373
CC(=O)Nc1nc2ccc(-c3cnc(Cl)c(NS(=O)(=O)c4ccc(C(C)(C)O)cc4)c3)cc2s1 [Example 161, N-(6-(6-chloro-5-(4-(2-hydroxypropan-2-yl)phenylsulfonamido)pyridin-3-yl)benzo[d]thiazol-2-yl)acetamide]	13.7	44.6	4.1	–
Cc1ccc(S(=O)(=O)Nc2nnc(-c3ccc4nc(NC(=O)OC(C)(C)C)sc4c3)o2)cc1 [Example 166, tert-Butyl 6-(5-(4-methylphenylsulfonamido)-1,3,4-oxadiazol-2-yl)benzo[d]thiazol-2-ylcarbamate]	336	2200	239	–

The next lines start with results.

IC50 (PI3K α) [nM]	IC50 (PI3K β) [nM]	IC50 [1, 2] [nM]	SMILES	IC50 [1, 3] [nM]
7.1	15	30.7	CC(=O)Nc1nc2ccc(-c3cnc(C)c(NS(=O)(=O)c4cccc(OC(F)F)c4)c3)cc2s1 [Example 115, N-(6-(5-(((3-(difluoromethoxy)phenyl)sulfonyl)amino)-6-methyl-3-pyridinyl)-1,3-benzothiazol-2-yl)acetamide]	–
12.3	13.5	34.5	CC(=O)Nc1nc2ccc(-c3cnc(Cl)c(NS(=O)(=O)c4ccc(C(C)=O)cc4)c3)cc2s1 [Example 119, N-(6-(5-(((4-acetylphenyl)sulfonyl)amino)-6-chloro-3-pyridinyl)-1,3-benzothiazol-2-yl)acetamide]	–
24.7	90.8	66.6	COc1ncc(-c2ccc3nc(NC(C)=O)sc3c2)cc1N(C)C [Example 124, N-(6-(5-(dimethylamino)-6-methoxy-3-pyridinyl)-1,3-benzothiazol-2-yl)acetamide]	–
27.8	31.6	58.1	CC(=O)Nc1nc2ccc(-c3cncc(N(C)S(=O)(=O)c4ccc(C)cc4)n3)cc2s1 [Example 127, N-(6-(6-(methyl((4-methylphenyl)sulfonyl)amino)-2-pyrazinyl)-1,3-benzothiazol-2-yl)acetamide]	–
41.3	126	1800	COc1ccc(S(=O)(=O)Nc2nccc(-c3cc(F)c4nc(NC(C)=O)sc4c3)n2)cc1 [Example 131, N-(4-fluoro-6-(2-(((4-methoxyphenyl)sulfonyl)amino)-4-pyrimidinyl)-1,3-benzothiazol-2-yl)acetamide]	–
41.4	379	316	CC(=O)Nc1nc2ccc(-c3cnc(Cl)c(NC(C)C)c3)cc2s1 [Example 132, N-(6-(6-chloro-5-((1-methylethyl)amino)-3-pyridinyl)-1,3-benzothiazol-2-yl)acetamide]	–
47	668	1220	CC(=O)Nc1nc2ccc(-c3ccnc(Sc4ccccc4Br)n3)cc2s1 [Example 134, N-(6-(2-((2-bromophenyl)sulfanyl)-4-pyrimidinyl)-1,3-benzothiazol-2-yl)acetamide]	–
95.4	846	850	CC(C)Nc1cc(-c2ccc3nc(NC(=O)Cc4ccccn4)sc3c2)cnc1Cl [Example 141, N-(6-(6-chloro-5-(isopropylamino)pyridin-3-yl)benzo[d]thiazol-2-yl)-2-(pyridin-2-yl)acetamide]	–
111	109	328	COc1ccc(S(=O)(=O)N(C)c2nccc(-c3cc(F)c4nc(NC(C)=O)sc4c3)n2)cc1 [Example 143, N-(4-fluoro-6-(2-(((4-methoxyphenyl)sulfonyl)(methyl)amino)-4-pyrimidinyl)-1,3-benzothiazol-2-yl)acetamide]	–
112	1570	723	COCC(=O)Nc1nc2ccc(-c3cnc(Cl)c(NC(C)C)c3)cc2s1 [Example 144, N-(6-(6-chloro-5-((1-methylethyl)amino)-3-pyridinyl)-1,3-benzothiazol-2-yl)-2-methoxyacetamide]	–
149	5680	440	CNc1ncc(-c2ccc3nc(NC(C)=O)sc3c2)cc1NC(C)C [Example 147, N-(6-(5-(isopropylamino)-6-(methylamino)pyridin-3-yl)benzo[d]thiazol-2-yl)acetamide]	–
151	1360	881	COc1ccc(S(=O)(=O)c2cccc(-c3cc(F)c4nc(NC(C)=O)sc4c3)n2)cc1 [Example 148, N-(4-fluoro-6-(6-((4-methoxyphenyl)sulfonyl)-2-pyridinyl)-1,3-benzothiazol-2-yl)acetamide]	–
186	902	503	CC(=O)Nc1nc2ccc(-c3cncc(Cl)n3)cc2s1 [Example 150, N-(6-(6-chloro-2-pyrazinyl)-1,3-benzothiazol-2-yl)acetamide]	–
230	1620	> 5000	CC(C)Nc1cc(-c2ccc3nc(NC(=O)C[C@@H]4CCCO4)sc3c2)cnc1Cl [Example 151, N-(6-(6-chloro-5-((1-methylethyl)amino)-3-pyridinyl)-1,3-benzothiazol-2-yl)-2-((2S)-tetrahydro-2-furanyl)acetamide]	–
509	1150	1990	CC(C)Nc1cc(-c2ccc3nc(N)sc3c2)cnc1Cl [Example 155, 6-(6-chloro-5-((1-methylethyl)amino)-3-pyridinyl)-1,3-benzothiazol-2-amine]	–
3	3.8	3.8	COc1ccc(S(=O)(=O)Nc2cc(-c3ccc4nc(NC(C)=O)sc4c3)cnc2Cl)cc1 [Example 163, N-(6-(6-Chloro-5-(4-methoxyphenylsulfonamido)pyridin-3-yl)benzo[d]thiazol-2-yl)acetamide]	–
